{RR} = two arginine residues at the PNA terminus
Key:
miR-155 = miR-155 gene expression in SUDHL-2 xenograft tumors; set-up: species or system NSG mice; settings: SUDHL-2 xenograft after in vivo treatment
Method: Data normalized with average control U6 (n=4) and represented as mean±standard error mean. Unpaired t test was used for statistical analysis. Further statistical analysis was performed relative to Scr-γtcPNA-155. **p<0.01, ***p<0.001.
Further, we corroborated our results in the SUDHL-2 derived xenograft mouse model. We injected the SUDHL-2 cells in the right and left flank of mice. After 14-21 days, when the tumor volume reached 100-200 mm3, the mice were randomized into three treatment groups based on uniform tumor volume distribution in each group. […] (FIG. 27)

miR-155 downstream genes = assay: Gene expression of miR-155 downstream genes by RT-PCR in U2932 cells; assay type: cell-based, human; settings: U2932, 500 nM, 48 hours
Method: FIGS. 3A-F show cell culture-based functional assay in U2932 lymphoma cells. (3A) γtcPNA-155-TAMRA uptake in the U2932 lymphoma cell line: Representative flow cytometry traces of TAMRA fluorescence in U2932 cells after treatment with 500 nM dose of γtcPNA-155-TAMRA for 48 hours. The data was analyzed by FlowJo software. (3B) Normalized miR-155 gene expression levels in U2932 after treatment with phosphate buffer saline (PBS) as a control and with 500 nM dose of Scr-γtcPNA-155, PNA-155, γPNA-155 and γtcPNA-155 for 48 hours compared to average control U6 (n=3), data represented as mean±standard error mean (SEM), Statistical analysis was performed using Unpaired two-tailed t-test. Further, statistical analysis was performed relative to Scr-γtcPNA-155 treated cells. ***p<0.001. (3C) Gene expression level of miR-155 downstream genes, tumor suppressor proteins (FOXO3A, CUX1, SOCS1, CSF1R, JARID2, SHIP1, PICALM, PDCD4, BACH1, WEE1, TP53TG3, CASP3, PTEN) in U2932 cell line after treatment with PBS as a control and with after treatment with 500 nM of Scr-γtcPNA-155, PNA-155, γPNA-155 and γtcPNA-155 for 48 hours. Data is normalized with average GAPDH control (n=3), and represented as mean±SEM, *p<0.05. Unpaired two-tailed t-test was used for statistical analysis and analysis was performed relative to Scr-γtcPNA-155 treated cells. (3D) Gene expression level of miR-155 downstream genes MCL1 in U2932 cell line after treatment with PBS as a control and 500 nM of Scr-γtcPNA-155, PNA-155, γPNA-155 and γtcPNA-155 for 48 hours. Data is normalized with average GAPDH control (n=3), and represented as mean±SEM, *p<0.05, **p<0.01 and ***p<0.001. Statistical analysis was performed using Unpaired two-tailed t-test. Analysis was performed relative to Scr-γtcPNA-155 treated cells. (3E) Representative western blot of Mcl-1 and its quantification (n=3 technical replicate) and (3F) Caspase-3 protein and its quantification (n=3 technical replicate) in U2932 cell line after treatment with 500 nM of Scr-γtcPNA-155, PNA-155 and γtcPNA-155 for 48 hours. Data is represented as mean±SEM and unpaired two-tailed t-test was used for statistical analysis. *p<0.05 **p<0.01. Numbers above western blot panels represent relative quantification of the respective bands using ImageJ software and normalized relative to loading control and treatment control.
Gene expression by RT-PCR: 400,000 U2932 cells were seeded in a 12 well plate. The cells were treated with 500 nM PNA-155, gamma tcPNA-155, gamma PNA-155, Scr gamma tcPNA-155 or were PBS treated (control) for 48 hrs in an incubator (37° C. and 5% CO2). The cells were centrifuged at 2000 rpm for 4 mins at 4° C. The total RNA from the cell pellet was extracted using RNeasy® mini kit (Qiagen). The cDNA was prepared in thermal cycler (Bio-rad) using reverse transcriptase, RNase inhibitor, dNTPs, nuclease-free water and RT primers specific for miR-155 and U6. Random primers were used for the preparation of cDNA for downstream targets. The cDNA was amplified using miR-155 assay, U6 assay, or specific downstream target assays in CFX Connect™ Real-time PCR detection system (Bio-rad). The samples were subjected to polymerase activation (95° C. for 10 mins), followed by 40 cycles of denaturation (95° C. for 15 sec) and annealing (60° C. for 1 min). The 2^−ΔΔCT method was used to calculate the fold change in target genes.

U2932 cells = assay: Cell viability by trypan blue assay, U2932; assay type: cell-based, human
Method: Cell viability was performed using trypan blue-based assay (n=3 technical triplicate), data represented as mean±(SEM), * represents the statistical analysis were performed relative to Scr-γtcPNA-155 and ♦ represent analysis performed relative to PNA-155. *p<0.05, **p<0.01, ***p<0.001 and ****p<0.0001, ♦p<0.05, ♦♦p<0.01, unpaired two-tailed t-test was used for statistical analysis. The experiment was repeated three times and in triplicate.
Cell viability was performed using trypan blue-based assay (n=3), data represented as mean±standard error mean (SEM), *p<0.05, **p<0.01. Unpaired two-tailed t-test was used for statistical analysis.
Cell viability was performed using trypan blue-based assay (n=3), data represented as mean±standard error mean (SEM).
Cell viability by trypan blue assay: Diffused large B cell lymphoma (DLBCL) cell lines like SUDHL-2 (ATCC® CRL-2956™) and SUDHL-5 (ATCC® CRL-2958™) cells were purchased from ATCC (Virginia, USA). The cells were regularly tested for Mycoplasma contamination using MycoAlert™ Mycoplasma detection kit (Lonza). All the cells used in the experiment were passaged less than 8 times. 10,000 U2932, SUDHL-5, or SUDHL-2 cells were plated in a 96 well plate. The cells were treated with different doses (500 nM, 1000 nM, 2000 nM and 4000 nM) of PNA-155, gamma tcPNA-155 or Scr-γtcPNA-155 for 48 hrs in an incubator (37° C. and 5% CO2). The dead cells were marked with trypan blue. Further counting was performed using an automated cell counter (Bio-rad).

Row | Substance | miR-155 expression level in tumors (miR-155) | reduction in MCL1 gene expression levels (miR-155 downstream genes) | de-repression of miR-155 target tumor suppressor genes (miR-155 downstream genes) | increase in CSF1R levels (miR-155 downstream genes; in comparison to PNA-155) | increase in CUX1 levels (miR-155 downstream genes; in comparison to PNA-155) | increase in SHIP1 levels (miR-155 downstream genes; in comparison to PNA-155) | reduction in cell viability at 500 nM (U2932 cells; U2932, 500 nM, compared to PNA-155 treated group) | decrease in cell viability (U2932 cells; U2932, 4UM, 48 hours)
1 | PNA-155: conventional full-length regular PNA (23mer), RR-ACCCCTATCACGATTAGCATTAA-RR, SEQ ID NO: 1 (all peptide nucleic acid (PNA), 5' {RR}, 3' {RR}) [reference compound] | significantly reduces miR-155 expression level | 10% | – | – | – | – | – | –
2 | γtcPNA-155: serine gamma tail-clamp anti-miR-155 PNA, RR-TJJJJ-OOO-ACCCCTATCACGATTAGCATTAA-RR, SEQ ID NO: 3 (all peptide nucleic acid (PNA); serine gamma PNA, tail-clamp TJJJJ via linkers, Arg-Arg at both ends) | – | 40% | significant de-repression | 1.8 fold | 1.6 fold | 1.4 fold | significant reduction in cell viability | ~80%

Source: patent US20260092085A1, “SYNTHETIC TRIPLEX PEPTIDE NUCLEIC ACID-BASED INHIBITORS FOR CANCER THERAPY” (University of Connecticut, priority 2022, published 2026)
